The nature of data set [1]: Evaluation of oxidation stability: QH residual rate after storage, QH ratio by HPLC. It is filed as physicochemical. The procedure: The weight ratio of reduced coenzyme Q10 to total coenzyme Q10 (namely, reduced coenzyme Q10/(oxidized coenzyme Q10+reduced coenzyme Q10)) is defined as “QH ratio”. The QH ratio was determined by the following HPLC analysis. For the evaluation of oxidation stability, a rate of the change in the QH ratio at the end of the evaluation from that at the beginning of the evaluation was defined as “QH residual rate”, and the QH residual rate determined by the following expression was used as a measure of oxidation stability.
QH residual rate (%)=100×QH ratio at the end of the evaluation/QH ratio at the beginning of the evaluation
Column: SYMMETRY C18 (manufactured by Waters); 250 mm (length), 4.6 mm (inner diameter)
Mobile phase: C2H5OH:CH3OH=4:3 (v:v)
Detection wavelength: 210 nm

Data set [2] is described as follows: Measurement of water activity (AquaLab Series 4TE). It is filed as physicochemical. The following applies: for water activity at 25° C.: composition or crystal as placed in the vial; for water activity in the packaged body: packaged body with controlled relative humidity. The procedure: The water activity was measured with AquaLab Series 4TE (METER Group Inc.). A sample having a volume of about 5 ml in a sample dish was placed in AquaLab Series 4TE, and the water activity at 25° C., was measured.

The mark [3] stands for this setting: sealed aluminum laminate bag, packed at controlled relative humidity, stored at 25° C., 4 weeks.
The mark [4] stands for this setting: packaged body with controlled internal relative humidity, stored at 40° C., 2 weeks.

For `COc1c(O)c(C)c(C/C=C(\C)CC/C=C(\C)CC/C=C(\C)CC/C=C(\C)CC/C=C(\C)CC/C=C(\C)CC/C=C(\C)CC/C=C(\C)CC/C=C(\C)CCC=C(C)C)c(O)c1OC` [Comparative Example 2, reduced coenzyme Q10], the “QH residual rate (%)” value in data set [1] (sealed glass vial, stored at 25° C., relative humidity 60%, 4 weeks) is listed as 33.3%. The “water activity at 25° C.” value in data set [2] was 0.13.

As for `COc1c(O)c(C)c(C/C=C(\C)CC/C=C(\C)CC/C=C(\C)CC/C=C(\C)CC/C=C(\C)CC/C=C(\C)CC/C=C(\C)CC/C=C(\C)CC/C=C(\C)CCC=C(C)C)c(O)c1OC` [Example 3, reduced coenzyme Q10], the “QH residual rate (%)” value in data set [1] (setting [3]) is reported as 92.3%. For the same compound, the “water activity in the packaged body” value in data set [2] amounted to 0.50.

On to `COc1c(O)c(C)c(C/C=C(\C)CC/C=C(\C)CC/C=C(\C)CC/C=C(\C)CC/C=C(\C)CC/C=C(\C)CC/C=C(\C)CC/C=C(\C)CC/C=C(\C)CCC=C(C)C)c(O)c1OC` [Example 4, reduced coenzyme Q10], for which the “QH residual rate (%)” value in data set [1] (setting [3]) is 95.3%. Moreover, the “water activity in the packaged body” value in data set [2] was determined as 0.85.

As for `COc1c(O)c(C)c(C/C=C(\C)CC/C=C(\C)CC/C=C(\C)CC/C=C(\C)CC/C=C(\C)CC/C=C(\C)CC/C=C(\C)CC/C=C(\C)CC/C=C(\C)CCC=C(C)C)c(O)c1OC` [Comparative Example 1, reduced coenzyme Q10], the “QH residual rate (%)” value in data set [1] (sealed glass vial, stored at 40° C., relative humidity 75%, 4 weeks) is listed as 87.5%. Moreover, the “water activity at 25° C.” value in data set [2] was found to be 0.17.

As to “co-crystal composed of QH and nicotinamide [Example 10]”, the “QH residual rate (%)” value in data set [1] (setting [4]) stood at 92.2%. Further, in data set [2], the “water activity in the packaged body” value stood at 0.53.

As to “co-crystal composed of QH and nicotinamide [Comparative Example 3]”, in data set [1] (setting [4]), the “QH residual rate (%)” value worked out at 82.6%. For the same compound, the “water activity in the packaged body” value in data set [2] is recorded as 0.48.
